Legend:
Assay in all cases: relative viability (nuclei count vs DMSO), 5 days (fraction); higher = more cells survive
NCI-H522 = tested on: NCI-H522
How it was run: (§1)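 Relative viability was taken as the ratio of nuclei in treated wells to nuclei in vehicle wells. Lung cancer cell lines in 1536-well plates received compounds by pin tool one day after seeding, either one drug alone or a fixed anchor-drug dose plus five library-drug doses (not always all listed) in √10 steps. Nuclei were counted on 4× images after 5 days of treatment, and values are medians of duplicate plates.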

NCI-H1648 = tested on: NCI-H1648
How it was run: as §1

SW 900 = tested on: SW 900
How it was run: as §1

NCI-H2342 = tested on: NCI-H2342
How it was run: as §1

A549 = tested on: A549
How it was run: as §1

Calu-6 = tested on: Calu-6
How it was run: as §1

IA-LM = tested on: IA-LM
How it was run: as §1

EBC-1 = tested on: EBC-1
How it was run: as §1

NCI-H1703 = tested on: NCI-H1703
How it was run: as §1

NCI-H1299 = tested on: NCI-H1299
How it was run: as §1

NCI-H1563 = tested on: NCI-H1563
How it was run: as §1

NCI-H1623 = tested on: NCI-H1623
How it was run: as §1

SMILES: O=C(O)CCCCC(CCSCc1ccccc1)SCc1ccccc1 (configuration not stated) [CPI-613] + Nc1ncn([C@H]2C[C@H](O)[C@@H](CO)O2)c(=O)n1 [Decitabine] (partner 2 µM)
- relative viability (NCI-H522; first compound 5 µM): 0.678
- relative viability (NCI-H522; first compound 15.81 µM): 0.585
- relative viability (NCI-H522; first compound 50 µM): 0.697
- relative viability (NCI-H522; first compound 158.11 µM): 0.627
- relative viability (NCI-H522; first compound 500 µM): 0.3
- relative viability (NCI-H1648; first compound 5 µM): 0.568
- relative viability (NCI-H1648; first compound 15.81 µM): 0.409
- relative viability (NCI-H1648; first compound 50 µM): 0.57
- relative viability (NCI-H1648; first compound 158.11 µM): 0.4
- relative viability (NCI-H1648; first compound 500 µM): 0.172
- relative viability (SW 900; first compound 5 µM): 0.458
- relative viability (SW 900; first compound 50 µM): 0.429
- relative viability (SW 900; first compound 158.11 µM): 0.332
- relative viability (SW 900; first compound 500 µM): 0.0668
- relative viability (NCI-H2342; first compound 5 µM): 0.669
- relative viability (NCI-H2342; first compound 15.81 µM): 0.656
- relative viability (NCI-H2342; first compound 50 µM): 0.838
- relative viability (NCI-H2342; first compound 158.11 µM): 0.78
- relative viability (NCI-H2342; first compound 500 µM): 0.779
- relative viability (A549; first compound 5 µM): 0.284
- relative viability (A549; first compound 15.81 µM): 0.195
- relative viability (A549; first compound 50 µM): 0.269
- relative viability (A549; first compound 158.11 µM): 0.259
- relative viability (A549; first compound 500 µM): 0.161

SMILES: O=C(O)CCCCC(CCSCc1ccccc1)SCc1ccccc1 (configuration not stated) [CPI-613] + O=C(c1cc(Cc2n[nH]c(=O)c3ccccc23)ccc1F)N1CCN(C(=O)C2CC2)CC1 [Olaparib] (partner 8 µM)
- relative viability (Calu-6; first compound 5 µM): 0.525
- relative viability (Calu-6; first compound 50 µM): 0.521
- relative viability (Calu-6; first compound 158.11 µM): 0.433
- relative viability (Calu-6; first compound 500 µM): 0.401
- relative viability (IA-LM; first compound 5 µM): 0.881
- relative viability (IA-LM; first compound 15.81 µM): 0.751
- relative viability (IA-LM; first compound 50 µM): 0.866
- relative viability (IA-LM; first compound 158.11 µM): 0.537
- relative viability (IA-LM; first compound 500 µM): 0.656
- relative viability (NCI-H522; first compound 5 µM): 0.589
- relative viability (NCI-H522; first compound 15.81 µM): 0.533
- relative viability (NCI-H522; first compound 50 µM): 0.681
- relative viability (NCI-H522; first compound 158.11 µM): 0.453
- relative viability (NCI-H522; first compound 500 µM): 0.346
- relative viability (EBC-1; first compound 5 µM): 0.698
- relative viability (EBC-1; first compound 15.81 µM): 0.33
- relative viability (EBC-1; first compound 50 µM): 0.589
- relative viability (EBC-1; first compound 158.11 µM): 0.512
- relative viability (EBC-1; first compound 500 µM): 0.49
- relative viability (NCI-H1648; first compound 5 µM): 0.878
- relative viability (NCI-H1648; first compound 15.81 µM): 0.976
- relative viability (NCI-H1648; first compound 50 µM): 1.01
- relative viability (NCI-H1648; first compound 158.11 µM): 0.255
- relative viability (NCI-H1648; first compound 500 µM): 0.0437
- relative viability (NCI-H1703; first compound 5 µM): 0.411
- relative viability (NCI-H1703; first compound 15.81 µM): 0.453
- relative viability (NCI-H1703; first compound 50 µM): 0.499
- relative viability (NCI-H1703; first compound 158.11 µM): 0.36
- relative viability (NCI-H1703; first compound 500 µM): 0.403
- relative viability (SW 900; first compound 5 µM): 0.873
- relative viability (SW 900; first compound 50 µM): 0.823
- relative viability (SW 900; first compound 158.11 µM): 0.33
- relative viability (SW 900; first compound 500 µM): 0.0124
- relative viability (NCI-H2342; first compound 5 µM): 0.472
- relative viability (NCI-H2342; first compound 15.81 µM): 0.432
- relative viability (NCI-H2342; first compound 50 µM): 0.5
- relative viability (NCI-H2342; first compound 158.11 µM): 0.461
- relative viability (NCI-H2342; first compound 500 µM): 0.412
- relative viability (NCI-H1299; first compound 5 µM): 0.942
- relative viability (NCI-H1299; first compound 15.81 µM): 1.01
- relative viability (NCI-H1299; first compound 50 µM): 0.903
- relative viability (NCI-H1299; first compound 158.11 µM): 0.909
- relative viability (NCI-H1299; first compound 500 µM): 0.968
- relative viability (A549; first compound 5 µM): 0.301
- relative viability (A549; first compound 15.81 µM): 0.371
- relative viability (A549; first compound 50 µM): 0.301
- relative viability (A549; first compound 158.11 µM): 0.335
- relative viability (A549; first compound 500 µM): 0.327

SMILES: Cc1cnc(-c2cnc(NCCNc3ccc(C#N)cn3)nc2-c2ccc(Cl)cc2Cl)[nH]1 + Cc1nc(Nc2ncc(C(=O)Nc3c(C)cccc3Cl)s2)cc(N2CCN(CCO)CC2)n1 [Dasatinib] (partner 0.075 µM)
- relative viability (NCI-H522; first compound 0.08 µM): 0.845
- relative viability (NCI-H522; first compound 0.253 µM): 0.996
- relative viability (NCI-H522; first compound 0.8 µM): 0.737
- relative viability (NCI-H522; first compound 2.53 µM): 0.844
- relative viability (NCI-H1563; first compound 0.08 µM): 0.439
- relative viability (NCI-H1563; first compound 0.253 µM): 0.471
- relative viability (NCI-H1563; first compound 0.8 µM): 0.51
- relative viability (NCI-H1563; first compound 2.53 µM): 0.429
- relative viability (NCI-H1623; first compound 0.08 µM): 0.5
- relative viability (NCI-H1623; first compound 0.253 µM): 0.536
- relative viability (NCI-H1623; first compound 0.8 µM): 0.472
- relative viability (NCI-H1623; first compound 2.53 µM): 0.516
- relative viability (SW 900; first compound 0.08 µM): 0.64
- relative viability (SW 900; first compound 0.253 µM): 0.425
- relative viability (SW 900; first compound 0.8 µM): 0.343
- relative viability (SW 900; first compound 2.53 µM): 0.404
- relative viability (NCI-H2342; first compound 0.08 µM): 0.325
- relative viability (NCI-H2342; first compound 0.253 µM): 0.321
- relative viability (NCI-H2342; first compound 0.8 µM): 0.301
- relative viability (NCI-H2342; first compound 2.53 µM): 0.278
